Source: ChEMBL document CHEMBL5316338, “Discovery of Novel PTP1B Inhibitors with Once-Weekly Therapeutic Potential for Type 2 Diabetes: Design, Synthesis, and In Vitro and In Vivo Investigations of BimBH3 Peptide Analogues” (J Med Chem, 2023)
Square brackets hold non-standard residues; d marks the D form. Peptide text beside a SMILES is read from it. * marks the point of attachment. ξ: configuration not given here. C19 diacid = O=C(O)CCCCCCCCCCCCCCCCCC(=O)*; C17 diacid = O=C(O)CCCCCCCCCCCCCCCC(=O)*; Docosanoyl = CCCCCCCCCCCCCCCCCCCCCC(=O)*; C16 diacid = O=C(O)CCCCCCCCCCCCCCC(=O)*; Nonadecanoyl = CCCCCCCCCCCCCCCCCCC(=O)*; C15 diacid = O=C(O)CCCCCCCCCCCCCC(=O)*; Heptadecanoyl = CCCCCCCCCCCCCCCCC(=O)*; Pentadecanoyl = CCCCCCCCCCCCCCC(=O)*; Palmitoyl = CCCCCCCCCCCCCCCC(=O)*; Tridecanoyl = CCCCCCCCCCCCC(=O)*; Lauroyl = CCCCCCCCCCCC(=O)*; ξR = N=C(N)NCCCC(N)C(=O)O

Key:
[1] = target: T1, Tyrosine-protein phosphatase non-receptor type 1 (Homo sapiens) (UniProt P18031); test: Inhibition of N-terminal His tagged recombinant human PTP1B expressed in Escherichia coli using pNPP as substrate assessed as substrate hydrolysis at 40 umol/L relative to control; settings: dose 40.0 µmol/L
T1 sequence (whole entry): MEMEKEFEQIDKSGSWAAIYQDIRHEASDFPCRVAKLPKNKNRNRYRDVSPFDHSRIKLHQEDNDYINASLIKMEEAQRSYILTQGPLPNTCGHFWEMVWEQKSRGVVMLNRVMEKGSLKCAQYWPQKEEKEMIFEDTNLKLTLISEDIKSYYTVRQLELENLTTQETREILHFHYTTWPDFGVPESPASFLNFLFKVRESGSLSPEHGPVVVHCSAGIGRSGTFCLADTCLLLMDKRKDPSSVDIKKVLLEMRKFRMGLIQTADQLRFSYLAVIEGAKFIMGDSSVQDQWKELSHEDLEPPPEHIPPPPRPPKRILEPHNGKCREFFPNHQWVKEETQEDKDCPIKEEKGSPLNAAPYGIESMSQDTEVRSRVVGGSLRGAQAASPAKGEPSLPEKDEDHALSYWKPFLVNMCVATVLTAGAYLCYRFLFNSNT

[2] = target: T2, Tyrosine-protein phosphatase non-receptor type 1 (Homo sapiens, UniProt P18031); test: Inhibition of N-terminal His tagged recombinant human PTP1B expressed in Escherichia coli using pNPP as substrate assessed as substrate hydrolysis
T2 sequence (P18031 whole entry): T1 sequence (whole entry)

Proteinase K = test: Stability of compound assessed as Proteinase K (unknown origin) mediated compound degradation by measuring half-life by HPLC analysis; format: ADME
Pepsin = test: Stability of compound assessed as Pepsin (unknown origin) mediated compound degradation by measuring half-life by HPLC analysis; format: ADME; settings: human
chymotrypsin [3] = target: chymotrypsin (Homo sapiens, UniProt P17538+P40313+Q6GPI1+Q99895); test: Stability of compound assessed as chymotrypsin (unknown origin) mediated compound degradation by measuring half-life by RP-HPLC analysis; format: ADME, protein assay
carboxypeptidase A = target: T3, carboxypeptidase A (Homo sapiens, UniProt P15085); test: Stability of compound assessed as carboxypeptidase A (unknown origin) mediated compound degradation by measuring half-life by RP-HPLC analysis; format: ADME
T3 sequence (P15085 whole entry): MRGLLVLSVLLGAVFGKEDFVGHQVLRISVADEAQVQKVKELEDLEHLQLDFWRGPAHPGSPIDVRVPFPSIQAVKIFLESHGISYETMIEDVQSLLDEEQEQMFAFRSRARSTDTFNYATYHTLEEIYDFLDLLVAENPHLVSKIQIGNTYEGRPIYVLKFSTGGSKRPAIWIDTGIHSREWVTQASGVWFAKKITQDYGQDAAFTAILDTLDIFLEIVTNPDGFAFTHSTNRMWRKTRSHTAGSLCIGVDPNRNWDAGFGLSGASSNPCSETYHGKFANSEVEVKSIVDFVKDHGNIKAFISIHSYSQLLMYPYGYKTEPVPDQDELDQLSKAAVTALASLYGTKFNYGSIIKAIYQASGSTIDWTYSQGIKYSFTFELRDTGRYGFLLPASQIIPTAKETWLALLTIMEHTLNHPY

[4] = Stability of compound assessed as Proteinase K (unknown origin) mediated compound degradation by measuring fold change of half-life by HPLC analysis relative to BimBH312-mer peptide; format: ADME
[5] = Stability of compound assessed as Pepsin (unknown origin) mediated compound degradation by measuring fold change of half-life by HPLC analysis relative to BimBH312-mer peptide; format: ADME; settings: human
Chymotrypsin [6] = target: Chymotrypsin (Homo sapiens, UniProt Q99895+P17538+P40313+Q6GPI1); test: Stability of compound assessed as chymotrypsin (unknown origin) mediated compound degradation by measuring fold change of half-life by RP-HPLC analysis relative to BimBH312-mer peptide; format: ADME, protein assay
Carboxypeptidase A1 = target: T4, Carboxypeptidase A1 (Homo sapiens, UniProt P15085); test: Stability of compound assessed as carboxypeptidase A (unknown origin) mediated compound degradation by measuring fold change of half-life by RP-HPLC analysis relative to BimBH312-mer peptide; format: ADME
T4 sequence (P15085 whole entry): T3 sequence (P15085 whole entry)

| SMILES | inhibition [1] [%] | IC50 [2] [nM] | also measured |
| --- | --- | --- | --- |
| CCCCCCCCCCCCCCCCCCCCCC(=O)N[C@H](C(=O)N[C@@H](C)C(=O)N[C@@H](CCC(N)=O)C(=O)N[C@@H](CCC(=O)O)C(=O)N[C@@H](CC(C)C)C(=O)N[C@@H](CCCNC(=N)N)C(=O)NC(CCCNC(=N)N)C(=O)N[C@H](C(=O)NCC(=O)N[C@@H](CC(=O)O)C(=O)N[C@@H](CCC(=O)O)C(=O)N[C@@H](Cc1ccccc1)C(=O)O)[C@@H](C)CC)[C@@H](C)CC (stereo not given in full) (Docosanoyl-IAQELR[ξR]IGDEF-OH) | > 50 | 6780 | – |
| CCCCCCCCCCCCCCCCC(=O)N[C@H](C(=O)N[C@@H](C)C(=O)N[C@@H](CCC(N)=O)C(=O)N[C@@H](CCC(=O)O)C(=O)N[C@@H](CC(C)C)C(=O)N[C@@H](CCCNC(=N)N)C(=O)N[C@@H](CCCNC(=N)N)C(=O)N[C@H](C(=O)NCC(=O)N[C@@H](CC(=O)O)C(=O)N[C@@H](CCC(=O)O)C(=O)N[C@@H](Cc1ccccc1)C(=O)O)[C@@H](C)CC)[C@@H](C)CC (Heptadecanoyl-IAQELRRIGDEF-OH) | > 50 | 2570 | – |
| CCCCCCCCCCCC(=O)N[C@H](C(=O)N[C@@H](C)C(=O)N[C@@H](CCC(N)=O)C(=O)N[C@@H](CCC(=O)O)C(=O)N[C@@H](CC(C)C)C(=O)N[C@@H](CCCNC(=N)N)C(=O)N[C@@H](CCCNC(=N)N)C(=O)N[C@H](C(=O)NCC(=O)N[C@@H](CC(=O)O)C(=O)N[C@@H](CCC(=O)O)C(=O)N[C@@H](Cc1ccccc1)C(=O)O)[C@@H](C)CC)[C@@H](C)CC (Lauroyl-IAQELRRIGDEF-OH) | > 50 | 2780 | – |
| CCCCCCCCCCCCCCCCCCC(=O)N[C@H](C(=O)N[C@@H](C)C(=O)N[C@@H](CCC(N)=O)C(=O)N[C@@H](CCC(=O)O)C(=O)N[C@@H](CC(C)C)C(=O)N[C@@H](CCCNC(=N)N)C(=O)NC(CCCNC(=N)N)C(=O)N[C@H](C(=O)NCC(=O)N[C@@H](CC(=O)O)C(=O)N[C@@H](CCC(=O)O)C(=O)N[C@@H](Cc1ccccc1)C(=O)O)[C@@H](C)CC)[C@@H](C)CC (stereo not given in full) (Nonadecanoyl-IAQELR[ξR]IGDEF-OH) | > 50 | 437 | – |
| CCCCCCCCCCCCCCCC(=O)N[C@H](C(=O)N[C@@H](C)C(=O)N[C@@H](CCC(N)=O)C(=O)N[C@@H](CCC(=O)O)C(=O)N[C@@H](CC(C)C)C(=O)N[C@@H](CCCNC(=N)N)C(=O)N[C@@H](CCCNC(=N)N)C(=O)N[C@H](C(=O)NCC(=O)N[C@@H](CC(=O)O)C(=O)N[C@@H](CCC(=O)O)C(=O)N[C@@H](Cc1ccccc1)C(=O)O)[C@@H](C)CC)[C@@H](C)CC (Palmitoyl-IAQELRRIGDEF-OH) | > 50 | 960 | half-life (Proteinase K): 2.82 h; half-life (Pepsin): 2.7 h; half-life (chymotrypsin [3]): 0.56 h; half-life (carboxypeptidase A): 3.19 h; fold change (FC) [4]: 56.4; fold change (FC) [5]: 122.7; fold change (FC) (Chymotrypsin [6]): 13; fold change (FC) (Carboxypeptidase A1): 99.7 |
| CCCCCCCCCCCCCCC(=O)N[C@H](C(=O)N[C@@H](C)C(=O)N[C@@H](CCC(N)=O)C(=O)N[C@@H](CCC(=O)O)C(=O)N[C@@H](CC(C)C)C(=O)N[C@@H](CCCNC(=N)N)C(=O)N[C@@H](CCCNC(=N)N)C(=O)N[C@H](C(=O)NCC(=O)N[C@@H](CC(=O)O)C(=O)N[C@@H](CCC(=O)O)C(=O)N[C@@H](Cc1ccccc1)C(=O)O)[C@@H](C)CC)[C@@H](C)CC (Pentadecanoyl-IAQELRRIGDEF-OH) | > 50 | 1660 | – |
| CCCCCCCCCCCCC(=O)N[C@H](C(=O)N[C@@H](C)C(=O)N[C@@H](CCC(N)=O)C(=O)N[C@@H](CCC(=O)O)C(=O)N[C@@H](CC(C)C)C(=O)N[C@@H](CCCNC(=N)N)C(=O)N[C@@H](CCCNC(=N)N)C(=O)N[C@H](C(=O)NCC(=O)N[C@@H](CC(=O)O)C(=O)N[C@@H](CCC(=O)O)C(=O)N[C@@H](Cc1ccccc1)C(=O)O)[C@@H](C)CC)[C@@H](C)CC (Tridecanoyl-IAQELRRIGDEF-OH) | > 50 | 835 | – |
| CC[C@H](C)[C@H](NC(=O)CCCCCCCCCCCCCC(=O)O)C(=O)N[C@@H](C)C(=O)N[C@@H](CCC(N)=O)C(=O)N[C@@H](CCC(=O)O)C(=O)N[C@@H](CC(C)C)C(=O)N[C@@H](CCCNC(=N)N)C(=O)N[C@@H](CCCNC(=N)N)C(=O)N[C@H](C(=O)NCC(=O)N[C@@H](CC(=O)O)C(=O)N[C@@H](CCC(=O)O)C(=O)N[C@@H](Cc1ccccc1)C(=O)O)[C@@H](C)CC ({C15 diacid}-IAQELRRIGDEF-OH) | > 50 | 1540 | – |
| CC[C@H](C)[C@H](NC(=O)CCCCCCCCCCCCCCC(=O)O)C(=O)N[C@@H](C)C(=O)N[C@@H](CCC(N)=O)C(=O)N[C@@H](CCC(=O)O)C(=O)N[C@@H](CC(C)C)C(=O)N[C@@H](CCCNC(=N)N)C(=O)N[C@@H](CCCNC(=N)N)C(=O)N[C@H](C(=O)NCC(=O)N[C@@H](CC(=O)O)C(=O)N[C@@H](CCC(=O)O)C(=O)N[C@@H](Cc1ccccc1)C(=O)O)[C@@H](C)CC ({C16 diacid}-IAQELRRIGDEF-OH) | > 50 | 2880 | – |
| CC[C@H](C)[C@H](NC(=O)CCCCCCCCCCCCCCCC(=O)O)C(=O)N[C@@H](C)C(=O)N[C@@H](CCC(N)=O)C(=O)N[C@@H](CCC(=O)O)C(=O)N[C@@H](CC(C)C)C(=O)N[C@@H](CCCNC(=N)N)C(=O)NC(CCCNC(=N)N)C(=O)N[C@H](C(=O)NCC(=O)N[C@@H](CC(=O)O)C(=O)N[C@@H](CCC(=O)O)C(=O)N[C@@H](Cc1ccccc1)C(=O)O)[C@@H](C)CC (stereo not given in full) ({C17 diacid}-IAQELR[ξR]IGDEF-OH) | > 50 | 1360 | – |
| CC[C@H](C)[C@H](NC(=O)CCCCCCCCCCCCCCCCCC(=O)O)C(=O)N[C@@H](C)C(=O)N[C@@H](CCC(N)=O)C(=O)N[C@@H](CCC(=O)O)C(=O)N[C@@H](CC(C)C)C(=O)N[C@@H](CCCNC(=N)N)C(=O)NC(CCCNC(=N)N)C(=O)N[C@H](C(=O)NCC(=O)N[C@@H](CC(=O)O)C(=O)N[C@@H](CCC(=O)O)C(=O)N[C@@H](Cc1ccccc1)C(=O)O)[C@@H](C)CC (stereo not given in full) ({C19 diacid}-IAQELR[ξR]IGDEF-OH) | > 50 | 1270 | – |
